For one series, the system named is cancer cells. The experiment in a line: Matrigel chemoinvasion assay (Boyden chambers). The series is classed as cell-based. The settings on record: 6 h, read-out: Chemoinvasion % inhibition at 50 μM. The text has this:
Matrigel Chemoinvasion Assay
This assay measures in vitro the potency of the compounds to repress the invasiveness of cancer cells, by inhibiting the MMPs produced by them. The assay uses a reconstituted basement membrane preparation, which is similar to the natural basement membranes that the tumor cells have to cross, in order to disseminate. The compounds examined have been added to the invasion chambers at various concentrations, and the resulted invasion was compared to untreated preparations.
Description of the of the Matrigel Chemoinvasion Experiment
a) The chemoinvasion assays were performed in Boyden chambers. Matrigel (25 μg) was dried on a polycarbonated filter (PVP free, Nucleopore). Fibroblast conditioned medium (obtained from confluent NIH-3T3 cells cultured in serum free DMEM) is used as the chemoattractant. […] The chambers were incubated in a humidified incubator at 37° C. in 5% CO2/95% air atmosphere for 6 h. The cells, which traversed the Matrigel layer and attached to the lower surface of the filter, were stained with Diff Quick (American Scientific Products) and counted.
The various compounds were examined as potential inhibitors at three concentrations: 100 μM, 50 μM and 10 μM.

Another series concerns the target T1, recombinant MMP-2 (Homo sapiens, UniProt P08253).
T1 construct: purchased
T1 sequence (P08253 110-660): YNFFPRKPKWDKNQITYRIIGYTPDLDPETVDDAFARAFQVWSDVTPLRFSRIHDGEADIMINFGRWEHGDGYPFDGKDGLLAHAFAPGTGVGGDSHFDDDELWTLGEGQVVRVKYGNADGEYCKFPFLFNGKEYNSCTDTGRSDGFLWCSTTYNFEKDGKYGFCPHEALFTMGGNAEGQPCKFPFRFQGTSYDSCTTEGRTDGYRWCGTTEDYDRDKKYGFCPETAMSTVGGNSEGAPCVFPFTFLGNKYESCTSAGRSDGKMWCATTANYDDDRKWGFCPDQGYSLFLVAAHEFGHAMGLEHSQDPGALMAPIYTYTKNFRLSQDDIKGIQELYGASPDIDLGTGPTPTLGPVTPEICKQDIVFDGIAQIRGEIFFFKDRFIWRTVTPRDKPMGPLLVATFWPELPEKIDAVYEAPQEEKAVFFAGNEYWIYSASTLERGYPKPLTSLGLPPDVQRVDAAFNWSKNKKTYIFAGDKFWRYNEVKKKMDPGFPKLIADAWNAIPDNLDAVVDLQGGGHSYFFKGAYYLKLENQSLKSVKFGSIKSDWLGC
Description: MMP inhibitory potency in vitro, succinylated-gelatin colorimetric assay. The series is classed as biochemical. As for the experimental part: (§1) Determination of MMP Inhibitory Potency (IC50 Values) in vitro
(§2) The commercially available recombinant MMP-2 and MMP-9 enzymes were incubated with succinylated-gelatin at four different concentrations for 3 h. The examined compounds were added at four to six different concentrations to the recombinant enzymes and the inhibitory potencies were expressed in a colorimetric change measured by an ELISA reader. The inhibitory activity (IC50) was calculated from the kinetic data obtained.

The next series deals with T2, recombinant MMP-9 (Homo sapiens, UniProt P14780).
T2 construct: purchased
Described as above. The class given is biochemical. On the procedure:
as §1, §2

Another series deals with Endothelial cells. Description: Endothelial cell capillary tube formation. The class given is cell-based. The note with it: read-out: Capillary Formation Inhibition % At 50 μM. The source says: Endothelial Cell Capillary Tube Formation
Some of the compounds were examined as to their potency to inhibit capillary formation, which is an in vitro model of angiogenesis, an essential step in the development of primary tumor and metastatic lesions. Endothelial cell migration to the newly formed tumor is the initial phase of angiogenesis, and is dependent on MMP expression. By using this assay that measures endothelial cell tube formation, the effects of some carbamoylphosphonates on angiogenesis at concentrations ranging from 100-5 μM were evaluated.
Description of the Endothelial Cell Capillary Tube Formation Experiment
Endothelial cells are harvested by 1 mM EDTA, and added to a Matrigel layer in a 24 well plate at 50,000 cells per well. After attachment, culture media (1 ml) is added and the plate is incubated as a monolayer culture. The plates are analyzed hourly using Hoffinan optics. This assay is used to evaluate inhibitory factors or stimulatory factors on capillary like structure formation, which may be added into the culture media.

In another series the test system is murine melanoma. Description: Tumor growth and metastasis in vivo, murine melanoma model. On the set-up: species or system mice. The note with it: Mus musculus, 504 h. The source says: Tumor Growth and Metastasis in Animal Models—in vivo Test
The abilities of the novel carbamoylphosphonates to inhibit the formation of metastatic lesions in vivo were examined in the murine melanoma model both by intraperitoneal (IP) and peroral (PO) administration. […] This is especially important, since oral administration is the most convenient one for the patient, especially for long term chronic treatments such as those envisaged for drugs that are the subject of this application.

The next series has as its target T3, MMP-1 (Homo sapiens, UniProt P03956).
T3 sequence (P03956 100-469): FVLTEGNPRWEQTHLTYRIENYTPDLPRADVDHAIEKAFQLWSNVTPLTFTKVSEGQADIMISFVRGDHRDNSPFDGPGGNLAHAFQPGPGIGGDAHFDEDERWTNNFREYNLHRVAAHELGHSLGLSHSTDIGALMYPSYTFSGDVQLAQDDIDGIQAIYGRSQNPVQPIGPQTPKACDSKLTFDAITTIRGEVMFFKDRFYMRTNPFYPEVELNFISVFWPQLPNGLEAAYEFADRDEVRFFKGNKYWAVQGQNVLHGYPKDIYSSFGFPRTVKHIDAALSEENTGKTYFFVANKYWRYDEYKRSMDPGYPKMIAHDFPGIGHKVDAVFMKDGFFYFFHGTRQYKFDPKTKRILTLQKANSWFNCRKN
Description: Selectivity towards different MMPs: MMP-1. The class given is biochemical. The settings on record: Table 2.

The target of a further series is MMP-3 (Homo sapiens, UniProt P08254). Description: Selectivity towards different MMPs: MMP-3. The settings on record: Table 2. The series is classed as biochemical.
The next series has as its target MMP-8 (Homo sapiens, UniProt P22894). The experiment in a line: Selectivity towards different MMPs: MMP-8. The series is classed as biochemical. The note with it: Table 2.
Series [1] in a line: Acute in vivo toxicity in healthy mice. The note with it: daily for two weeks at 50, 250 and 500 mg/kg. The source says:
Determination of Acute in vivo Toxicity of Representative Carbamoylphosphonates

Another series has as its system restenosis. Description: Rabbit model of restenosis (balloon injury, hypercholesterolemic). The class given is in vivo, New Zealand White rabbits. The settings on record: IP, total 70 mg/kg in 5 doses on days -1, +1, +4, +6, +8; after 30 days. As for the experimental part:
Rabbit Model of Restenosis
New Zealand White rabbits (Harlan Laboratories, Jerusalem, Israel) weighing 2.5 to 3.5 kg were used in accordance with the guidelines for animal care of the Hebrew University of Jerusalem and National Institutes of Health (USA). Animals were fed an atherogenic diet of 2% cholesterol and 6% peanut oil, starting 30 days before angioplasty. Hypercholesterolemia was ascertained (plasma cholesterol: 1200 mg/dL). Animals were anesthetized by xylazine (7 mg/kg) and ketamine (40 mg/kg). Heparin (200 U/kg), atropine (0.05 mg), and norfloxacin nicotinate (70 mg) were given. […] The control animals received saline. An investigator blinded to the type of experimental group performed the experiments. After euthanasia with pentothal, arteries were perfusion-fixed in situ with 150 mL of 4% formaldehyde solution (pH 7.4), processed for morphometric analysis, and stained with Verhoeff elastin staining, Mayer hematoxylin and eosin, and modified Movat pentachrome. Five animals were used in the experiment and five in the control group.
The marked inhibition of restenosis is unparalleled to other therapeutic modalities in this model (various antiinflammatories or antiproliferative agents). […] It should be noted that the larger lumen in the treatment group was achieved despite the general smaller size of the artery.

For series [2], the system named is Human prostate tumor cells DU145, PC3 or LMCap. Description: Orthotopic prostate tumor model. The class given is in vivo, mice. The settings on record: 50 mg/kg IP daily for 5 weeks, vs untreated control. On the procedure:
Human prostate tumor cells DU145, PC3 or LMCap transfected with a luciferase gene were injected orthotopically into the prostate of male mice (2×10^6 cells/mouse). […] The mice were monitored for local tumor growth and metastasis formation with a cooled charged coupled device camera (CCCD) sensitive to photons, weekly, starting 14 days after tumor implantation. The emitted photons are converted into a digitalized image proportional to the amount of photons emitted by the tumor cell upon exposure to luciferin.

Entries after “also recorded” stand apart in the source; their conditions may differ. Like-named read-outs stand apart in the source and are kept apart here.

Experimental findings from US7345033B2, “Carbamoyl-and thiocarbamoyl-phosphonates and pharmaceutical compositions comprising them” (Yissum Research Development Company of the Hebrew …, priority 2003, dated 2008) are described below.

T2 sequence (P14780 94-707, species assumed): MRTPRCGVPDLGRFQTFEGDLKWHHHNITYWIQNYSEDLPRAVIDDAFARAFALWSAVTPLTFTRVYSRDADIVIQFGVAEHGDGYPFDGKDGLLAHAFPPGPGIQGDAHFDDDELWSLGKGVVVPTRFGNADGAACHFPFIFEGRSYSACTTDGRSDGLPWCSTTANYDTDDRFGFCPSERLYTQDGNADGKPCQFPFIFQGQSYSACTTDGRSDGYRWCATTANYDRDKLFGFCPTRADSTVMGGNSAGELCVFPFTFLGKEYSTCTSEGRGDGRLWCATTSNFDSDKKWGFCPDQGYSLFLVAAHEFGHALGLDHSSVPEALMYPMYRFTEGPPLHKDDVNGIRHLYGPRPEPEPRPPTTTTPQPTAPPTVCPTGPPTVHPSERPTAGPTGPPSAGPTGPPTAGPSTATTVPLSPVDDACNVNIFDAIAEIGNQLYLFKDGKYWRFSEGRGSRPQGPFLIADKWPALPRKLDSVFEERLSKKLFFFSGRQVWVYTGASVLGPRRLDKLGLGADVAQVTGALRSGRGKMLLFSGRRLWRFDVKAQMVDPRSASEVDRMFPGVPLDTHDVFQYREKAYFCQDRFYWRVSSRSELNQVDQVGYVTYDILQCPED
Sequence of MMP-3 (P08254 100-477, species assumed): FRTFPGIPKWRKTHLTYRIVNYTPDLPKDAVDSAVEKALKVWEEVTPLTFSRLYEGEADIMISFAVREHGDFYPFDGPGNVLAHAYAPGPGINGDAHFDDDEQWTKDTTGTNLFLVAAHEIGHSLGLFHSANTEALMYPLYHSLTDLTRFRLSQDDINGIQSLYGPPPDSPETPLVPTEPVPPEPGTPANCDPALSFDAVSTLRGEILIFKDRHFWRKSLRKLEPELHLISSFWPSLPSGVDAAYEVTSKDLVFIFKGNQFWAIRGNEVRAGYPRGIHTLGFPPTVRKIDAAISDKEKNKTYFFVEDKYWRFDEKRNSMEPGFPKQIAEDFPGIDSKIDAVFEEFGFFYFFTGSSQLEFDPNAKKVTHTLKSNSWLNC
Sequence of MMP-8 (P22894 101-467, species assumed): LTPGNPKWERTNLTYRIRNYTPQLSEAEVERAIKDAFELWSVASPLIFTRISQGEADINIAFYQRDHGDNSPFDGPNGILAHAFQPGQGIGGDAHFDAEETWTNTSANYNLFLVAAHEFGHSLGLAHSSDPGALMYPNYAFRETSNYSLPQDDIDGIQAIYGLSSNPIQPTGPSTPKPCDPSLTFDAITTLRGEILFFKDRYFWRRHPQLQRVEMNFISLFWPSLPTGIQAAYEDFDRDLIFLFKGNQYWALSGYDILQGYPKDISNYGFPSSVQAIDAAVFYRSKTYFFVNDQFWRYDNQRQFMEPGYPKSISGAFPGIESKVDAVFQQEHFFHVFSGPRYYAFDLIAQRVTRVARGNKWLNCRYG

Take `N[C@@H]1CCCC[C@@H]1NC(=O)P(=O)(O)O` (relative stereo) [Compound 11, N-(cis-2-aminocyclohexyl)carbamoylphosphonic acid]: the inhibition at 50 µM is 62% in the series on cancer cells and 72% in the series on Endothelial cells. Also, the half-inhibitory concentration (IC50) was 0.06 µM at recombinant MMP-2; 20 µM at recombinant MMP-9; > 100 µM at MMP-1; > 100 µM at MMP-3; > 100 µM on MMP-8. In addition, the inhibition in vivo at 50 mg/kg in the series on murine melanoma (ip, read-out: In vivo murine melanoma % reduction IP) was determined as 77%; with murine melanoma (po, read-out: In vivo murine melanoma % reduction PO), 86%. For the same compound, the toxicity entry in [1] is recorded as “devoid of any toxicity even at 10 times the effective dose, namely at 500 mg/kg”. Moreover, the inhibition of restenosis result in the series on restenosis is “significant and marked inhibition of restenosis; also recorded: selective in vivo activity against restenosis”. Moreover, the “tumor dissemination (metastatic spread)” value in series [2] is listed as “significantly lower tumor dissemination”. The “tumor volume (local tumor growth)” value in [2] is “significantly lower tumor volume”.
